Source: patent US10799605B2 (3B PHARMACEUTICALS GMBH, priority 2014, dated 2020)
Like-named read-outs stand apart in the source and are kept apart here.

Assays:
[1] = Plasma stability assay, human plasma; type: in vitro ADME
Experimental: (§1) The plasma stability assay was performed to measure the degradation of compounds of the present invention in plasma. This is an important characteristic of a compound as compounds, with the exception of pro-drugs, which rapidly degrade in plasma generally show poor in vivo efficacy.
(§2) The plasma was spiked with a 10 mM analyte solution in dimethyl sulfoxide to a final concentration of 10 μM, vortexed, and aliquotted to 50 μl samples. Two aliquots were stored at −20° C. until further treatment. Another two aliquots were incubated using an Eppendorf Thermomixer at 37° C. for 1, 4, and 24 hours. Sample clean-up was performed using a protein precipitation plate (Phenomenex Strata Impact, 64722-1-324-1) and using acetonitrile as precipitation agent. […] An aliquot of 10 μl was diluted with 90 μl 0.1% aqueous trifluoroacetic acid solution. The determination of the analyte in the clean sample solutions was performed on a Thermo TSQ Quantum Ultra triple quadrupole mass spectrometer equipped with a thermo Surveyor HPLC. The chromatographic separation was carried out on a Phenomenex Kinetex XB-C18 HPLC column (50×2 mm, […] particle size) with gradient elution using a mixture of 0.01% trifluoroacetic acid and 0.05% formic acid in water as eluent A and methanol as eluent B (20% B to 100% in 8 min, 400 μl/min, 40° C.). For mass spectrometric detection the selected reaction monitoring (SRM) was used.
(§3) Quantitation was performed by external matrix calibration using an internal standard.

KV channel = assay: ExpresSProfile: KV channel, antagonist radioligand; type: binding; conditions: Test Concentration 1.0E−05 M
Y1 (h) = Y1 (h) (Homo sapiens (Human), UniProt P25929); assay: ExpresSProfile: neuropeptide Y receptor 1, agonist radioligand; type: binding; conditions: Test Concentration 1.0E−05 M
dopamine transporter (h) = dopamine transporter (h) (Homo sapiens (Human), UniProt Q01959); assay: ExpresSProfile: dopamine transporter, antagonist radioligand; type: binding; conditions: Test Concentration 1.0E−05 M
dopamine transporter (h), sequence (Q01959 whole entry): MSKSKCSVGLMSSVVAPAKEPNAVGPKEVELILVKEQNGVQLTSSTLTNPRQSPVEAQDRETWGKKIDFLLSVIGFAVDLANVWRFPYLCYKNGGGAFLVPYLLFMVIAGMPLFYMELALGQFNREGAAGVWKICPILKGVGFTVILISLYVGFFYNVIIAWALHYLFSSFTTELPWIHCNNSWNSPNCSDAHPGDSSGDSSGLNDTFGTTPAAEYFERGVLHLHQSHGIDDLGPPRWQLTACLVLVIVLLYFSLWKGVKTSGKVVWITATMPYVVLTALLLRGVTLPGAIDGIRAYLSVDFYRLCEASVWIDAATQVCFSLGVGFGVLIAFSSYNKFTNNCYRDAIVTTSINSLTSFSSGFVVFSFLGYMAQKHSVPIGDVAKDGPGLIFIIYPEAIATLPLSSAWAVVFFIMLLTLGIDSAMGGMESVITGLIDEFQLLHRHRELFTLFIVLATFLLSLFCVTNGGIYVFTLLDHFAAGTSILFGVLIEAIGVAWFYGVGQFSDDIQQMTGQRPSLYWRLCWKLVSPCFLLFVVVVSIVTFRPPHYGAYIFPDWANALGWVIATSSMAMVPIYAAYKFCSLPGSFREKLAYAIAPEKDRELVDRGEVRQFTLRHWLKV

GAL2 (h) = GAL2 (h) (Homo sapiens (Human), UniProt O43603); assay: ExpresSProfile: galanin receptor 2, agonist radioligand; type: binding; conditions: Test Concentration 1.0E−05 M
GAL2 (h), sequence (O43603 whole entry): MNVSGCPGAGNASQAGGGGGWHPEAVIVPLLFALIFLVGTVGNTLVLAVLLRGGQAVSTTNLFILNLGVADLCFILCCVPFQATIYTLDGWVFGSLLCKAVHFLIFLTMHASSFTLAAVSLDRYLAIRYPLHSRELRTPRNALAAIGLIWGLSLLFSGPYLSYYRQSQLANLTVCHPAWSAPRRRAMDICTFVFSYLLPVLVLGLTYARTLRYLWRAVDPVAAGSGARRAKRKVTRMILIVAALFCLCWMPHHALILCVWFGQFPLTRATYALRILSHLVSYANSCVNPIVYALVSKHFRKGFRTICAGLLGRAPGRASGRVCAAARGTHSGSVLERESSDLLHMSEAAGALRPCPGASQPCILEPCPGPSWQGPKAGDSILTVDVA

5-HT6 (h) = 5-HT6 (h) (Homo sapiens (Human), UniProt P50406); assay: ExpresSProfile: 5-hydroxytryptamine receptor 6, agonist radioligand; type: binding; conditions: Test Concentration 1.0E−05 M
5-HT6 (h), sequence (P50406 whole entry): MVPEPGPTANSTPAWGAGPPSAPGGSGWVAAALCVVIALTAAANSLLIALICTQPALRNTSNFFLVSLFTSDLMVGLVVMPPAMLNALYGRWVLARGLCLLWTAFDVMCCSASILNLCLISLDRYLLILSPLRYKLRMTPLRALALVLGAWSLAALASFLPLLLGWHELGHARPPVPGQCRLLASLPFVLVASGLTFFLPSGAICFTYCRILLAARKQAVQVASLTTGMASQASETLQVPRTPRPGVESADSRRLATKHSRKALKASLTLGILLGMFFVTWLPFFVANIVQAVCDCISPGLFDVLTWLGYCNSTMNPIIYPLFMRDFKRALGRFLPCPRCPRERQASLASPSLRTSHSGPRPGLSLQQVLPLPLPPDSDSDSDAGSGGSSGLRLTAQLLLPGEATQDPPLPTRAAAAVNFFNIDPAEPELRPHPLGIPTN

5-HT2B (h) = 5-HT2B (h) (Homo sapiens (Human), UniProt P41595); assay: ExpresSProfile: 5-hydroxytryptamine receptor 2B, agonist radioligand; type: binding; conditions: Test Concentration 1.0E−05 M
5-HT2B (h), sequence (P41595 whole entry): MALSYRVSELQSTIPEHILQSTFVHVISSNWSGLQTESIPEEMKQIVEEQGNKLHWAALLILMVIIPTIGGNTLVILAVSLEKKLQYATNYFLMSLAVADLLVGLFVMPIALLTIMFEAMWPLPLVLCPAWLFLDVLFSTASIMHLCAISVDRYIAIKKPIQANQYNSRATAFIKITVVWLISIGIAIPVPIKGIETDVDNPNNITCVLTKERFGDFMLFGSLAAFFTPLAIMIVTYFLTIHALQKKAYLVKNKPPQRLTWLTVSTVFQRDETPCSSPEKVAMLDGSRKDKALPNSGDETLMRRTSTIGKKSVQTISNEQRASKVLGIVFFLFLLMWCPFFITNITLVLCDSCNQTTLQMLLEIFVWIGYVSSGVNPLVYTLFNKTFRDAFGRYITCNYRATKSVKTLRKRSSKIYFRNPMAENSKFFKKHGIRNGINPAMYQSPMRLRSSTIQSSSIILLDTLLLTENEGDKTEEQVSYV

BZD (central) = assay: ExpresSProfile: benzodiazepine, agonist radioligand; type: binding; conditions: Test Concentration 1.0E−05 M
5-HT5a (h) = 5-HT5a (h) (Homo sapiens (Human), UniProt P47898); assay: ExpresSProfile: 5-hydroxytryptamine receptor 5a, agonist radioligand; type: binding; conditions: Test Concentration 1.0E−05 M
[2] = Plasma stability assay, mouse plasma; type: in vitro ADME
Experimental: as §1, §2, §3

D1 (h) = D1 (h) (Homo sapiens (Human), UniProt P21728); assay: ExpresSProfile: dopamine receptor 1, antagonist radioligand; type: binding; conditions: Test Concentration 1.0E−05 M
D1 (h), sequence (P21728 whole entry): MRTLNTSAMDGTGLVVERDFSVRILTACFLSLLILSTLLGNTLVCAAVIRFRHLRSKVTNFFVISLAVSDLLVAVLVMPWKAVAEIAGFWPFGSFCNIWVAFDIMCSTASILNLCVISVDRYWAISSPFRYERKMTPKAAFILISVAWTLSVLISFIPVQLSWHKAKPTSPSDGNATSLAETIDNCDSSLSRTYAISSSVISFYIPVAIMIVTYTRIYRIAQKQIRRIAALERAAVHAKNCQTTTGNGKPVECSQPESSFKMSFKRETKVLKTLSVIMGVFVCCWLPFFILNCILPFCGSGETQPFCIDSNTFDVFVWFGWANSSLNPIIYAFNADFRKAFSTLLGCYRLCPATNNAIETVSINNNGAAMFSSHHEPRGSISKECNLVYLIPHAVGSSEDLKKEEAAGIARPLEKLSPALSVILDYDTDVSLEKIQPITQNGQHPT

mu (MOP) (h) = mu (MOP) (h) (Homo sapiens (Human), UniProt P35372); assay: ExpresSProfile: mu opioid receptor, agonist radioligand; type: binding; conditions: Test Concentration 1.0E−05 M
mu (MOP) (h), sequence (P35372 whole entry): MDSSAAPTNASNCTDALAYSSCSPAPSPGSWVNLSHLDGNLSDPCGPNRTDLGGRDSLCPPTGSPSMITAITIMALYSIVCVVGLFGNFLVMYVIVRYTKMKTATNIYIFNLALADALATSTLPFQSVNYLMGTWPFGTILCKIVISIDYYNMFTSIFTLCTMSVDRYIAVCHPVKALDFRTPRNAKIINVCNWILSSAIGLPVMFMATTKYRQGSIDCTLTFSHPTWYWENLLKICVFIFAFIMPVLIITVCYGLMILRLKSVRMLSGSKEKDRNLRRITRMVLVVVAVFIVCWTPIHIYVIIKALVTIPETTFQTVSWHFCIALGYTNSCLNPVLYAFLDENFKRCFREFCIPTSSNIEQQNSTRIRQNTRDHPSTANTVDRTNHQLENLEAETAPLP

CB1 (h) = CB1 (h) (Homo sapiens (Human), UniProt P21554); assay: ExpresSProfile: cannabinoid receptor 1, agonist radioligand; type: binding; conditions: Test Concentration 1.0E−05 M
CB1 (h), sequence (P21554 whole entry): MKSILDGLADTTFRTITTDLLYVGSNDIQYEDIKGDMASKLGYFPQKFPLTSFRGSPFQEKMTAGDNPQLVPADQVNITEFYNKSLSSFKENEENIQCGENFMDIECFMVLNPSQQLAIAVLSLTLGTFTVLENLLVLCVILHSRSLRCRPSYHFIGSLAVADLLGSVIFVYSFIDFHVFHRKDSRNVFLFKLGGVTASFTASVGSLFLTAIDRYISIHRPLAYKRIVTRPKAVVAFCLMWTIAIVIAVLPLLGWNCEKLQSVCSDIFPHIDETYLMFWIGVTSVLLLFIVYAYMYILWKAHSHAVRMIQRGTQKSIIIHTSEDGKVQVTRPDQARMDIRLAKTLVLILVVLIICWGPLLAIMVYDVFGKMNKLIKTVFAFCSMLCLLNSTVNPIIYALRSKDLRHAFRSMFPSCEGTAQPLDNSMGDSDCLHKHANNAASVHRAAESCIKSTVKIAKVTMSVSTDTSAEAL

A2A (h) = A2A (h) (Homo sapiens (Human), UniProt P29274); assay: ExpresSProfile: adenosine receptor 2A, agonist radioligand; type: binding; conditions: Test Concentration 1.0E−05 M
A2A (h), sequence (P29274 whole entry): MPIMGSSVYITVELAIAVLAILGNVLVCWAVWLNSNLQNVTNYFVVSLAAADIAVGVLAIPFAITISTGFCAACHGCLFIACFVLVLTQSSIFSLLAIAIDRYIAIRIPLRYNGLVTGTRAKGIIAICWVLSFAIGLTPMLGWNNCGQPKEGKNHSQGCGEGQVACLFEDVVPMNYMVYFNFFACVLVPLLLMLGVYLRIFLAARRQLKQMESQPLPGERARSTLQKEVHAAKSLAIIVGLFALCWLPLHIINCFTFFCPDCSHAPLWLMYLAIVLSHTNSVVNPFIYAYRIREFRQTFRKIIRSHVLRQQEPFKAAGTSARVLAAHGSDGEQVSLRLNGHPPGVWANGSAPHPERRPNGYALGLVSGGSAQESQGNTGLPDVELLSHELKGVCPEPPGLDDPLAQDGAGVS

5-HT1A (h) = 5-HT1A (h) (Homo sapiens (Human), UniProt P08908); assay: ExpresSProfile: 5-hydroxytryptamine receptor 1A, agonist radioligand; type: binding; conditions: Test Concentration 1.0E−05 M
5-HT1A (h), sequence (P08908 whole entry): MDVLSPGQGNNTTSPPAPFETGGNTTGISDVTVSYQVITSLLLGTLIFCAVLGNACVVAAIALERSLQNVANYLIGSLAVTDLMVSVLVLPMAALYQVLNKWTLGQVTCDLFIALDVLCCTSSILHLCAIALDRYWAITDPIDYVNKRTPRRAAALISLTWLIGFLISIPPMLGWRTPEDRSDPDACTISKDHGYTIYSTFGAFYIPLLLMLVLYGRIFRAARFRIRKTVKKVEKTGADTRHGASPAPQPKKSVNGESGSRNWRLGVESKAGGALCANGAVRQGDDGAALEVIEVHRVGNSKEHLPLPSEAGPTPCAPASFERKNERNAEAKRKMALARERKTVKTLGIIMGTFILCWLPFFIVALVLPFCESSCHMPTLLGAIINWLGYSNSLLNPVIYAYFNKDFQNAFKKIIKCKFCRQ

A1 (h) = A1 (h) (Homo sapiens (Human), UniProt P30542); assay: ExpresSProfile: adenosine receptor 1, antagonist radioligand; type: binding; conditions: Test Concentration 1.0E−05 M
[3] = test system: Ca2+ channel (L, verapamil site) (phenylalkylamine); assay: ExpresSProfile: Ca2+ channel, antagonist radioligand; type: binding; conditions: Test Concentration 1.0E−05 M
SKCa channel = assay: ExpresSProfile: SKCa channel, antagonist radioligand; type: binding; conditions: Test Concentration 1.0E−05 M
5-HT transporter (h) = 5-HT transporter (h) (Homo sapiens (Human), UniProt P31645); assay: ExpresSProfile: 5-HT transporter, antagonist radioligand; type: binding; conditions: Test Concentration 1.0E−05 M
5-HT transporter (h), sequence (P31645 whole entry): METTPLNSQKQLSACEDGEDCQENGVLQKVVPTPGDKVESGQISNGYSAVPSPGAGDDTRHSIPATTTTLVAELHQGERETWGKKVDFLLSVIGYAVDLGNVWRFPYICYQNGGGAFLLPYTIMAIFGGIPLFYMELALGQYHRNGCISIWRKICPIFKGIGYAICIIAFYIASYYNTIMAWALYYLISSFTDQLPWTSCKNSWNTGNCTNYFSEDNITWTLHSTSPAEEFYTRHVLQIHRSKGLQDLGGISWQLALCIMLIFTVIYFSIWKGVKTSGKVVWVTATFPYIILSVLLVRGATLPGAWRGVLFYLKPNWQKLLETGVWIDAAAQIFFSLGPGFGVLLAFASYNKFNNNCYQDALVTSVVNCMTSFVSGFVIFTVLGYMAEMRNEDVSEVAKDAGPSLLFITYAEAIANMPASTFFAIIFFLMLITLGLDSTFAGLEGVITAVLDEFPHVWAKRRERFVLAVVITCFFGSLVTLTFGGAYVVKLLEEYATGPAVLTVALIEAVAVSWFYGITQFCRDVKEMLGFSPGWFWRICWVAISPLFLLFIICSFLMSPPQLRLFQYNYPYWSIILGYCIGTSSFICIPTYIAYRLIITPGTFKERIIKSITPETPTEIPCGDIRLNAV

NK2 (h) = NK2 (h) (Homo sapiens (Human), UniProt P21452); assay: ExpresSProfile: neurokinin receptor 2, agonist radioligand; type: binding; conditions: Test Concentration 1.0E−05 M
NOP (ORL1) (h) = NOP (ORL1) (h) (Homo sapiens (Human), UniProt P41146); assay: ExpresSProfile: nociception receptor, agonist radioligand; type: binding; conditions: Test Concentration 1.0E−05 M
[4] = read-out: % Inhibition of Control Specific Binding
[5] = read-out: % of Control Specific Binding 1st
[6] = read-out: % of Control Specific Binding 2nd
[7] = read-out: % of Control Specific Binding Mean

COc1cccc(OC)c1-c1cc(C(=O)NC2(C(=O)O)C3CC4CC(C3)CC2C4)nn1-c1ccc(C(=O)N(C)CCCN(C)CCCN(C)C(=O)CN2CCN(CC(=O)O)CCN(CC(=O)O)CCN(CC(=O)O)CC2)cc1C(C)C (stereo not drawn) [(IIIa), 2-{[1-{4-[(3-{[3-(DOTA-methyl-amino)-propyl]-methyl-amino}-propyl)-methyl-carbamoyl]-2-isopropyl-phenyl}-5-(2,6-dimethoxy-phenyl)-1H-pyrazole-3-carbonyl]-amino}-adamantane-2-carboxylic acid]
stability in human plasma [1]: highly stable
% remaining after 24 h incubation, Human plasma ([1]; 10 μM, 37° C., 24 h): >90%
% Inhibition of Control Specific Binding (KV channel): −4%
% of Control Specific Binding 1st (KV channel): 104.3%
% of Control Specific Binding 2nd (KV channel): 104.2%
% of Control Specific Binding Mean (KV channel): 104.3%
inhibition at 10 µM (Y1 (h); [4]): -34%
remaining activity at 10 µM (Y1 (h); [5]): 128%
remaining activity at 10 µM (Y1 (h); [6]): 141%
remaining activity at 10 µM (Y1 (h); [7]): 134%
inhibition at 10 µM (dopamine transporter (h); [4]): -15%
remaining activity at 10 µM (dopamine transporter (h); [5]): 124%
remaining activity at 10 µM (dopamine transporter (h); [6]): 106%
remaining activity at 10 µM (dopamine transporter (h); [7]): 115%
inhibition at 10 µM (GAL2 (h); [4]): 1%
remaining activity at 10 µM (GAL2 (h); [5]): 96.5%
remaining activity at 10 µM (GAL2 (h); [6]): 102%
remaining activity at 10 µM (GAL2 (h); [7]): 99.3%
inhibition at 10 µM (5-HT6 (h); [4]): -6%
remaining activity at 10 µM (5-HT6 (h); [5]): 106%
remaining activity at 10 µM (5-HT6 (h); [6]): 105%
remaining activity at 10 µM (5-HT6 (h); [7]): 106%
inhibition at 10 µM (5-HT2B (h); [4]): -22%
remaining activity at 10 µM (5-HT2B (h); [5]): 118%
remaining activity at 10 µM (5-HT2B (h); [6]): 125%
remaining activity at 10 µM (5-HT2B (h); [7]): 122%
% Inhibition of Control Specific Binding (BZD (central)): −16%
% of Control Specific Binding 1st (BZD (central)): 109.4%
% of Control Specific Binding 2nd (BZD (central)): 122.6%
% of Control Specific Binding Mean (BZD (central)): 116.0%
inhibition at 10 µM (5-HT5a (h); [4]): -2%
remaining activity at 10 µM (5-HT5a (h); [5]): 109%
remaining activity at 10 µM (5-HT5a (h); [6]): 95.2%
remaining activity at 10 µM (5-HT5a (h); [7]): 102%
stability in mouse plasma [2]: highly stable
% remaining after 24 h incubation, Mouse plasma ([2]; 10 μM, 37° C., 24 h): >80%
inhibition at 10 µM (D1 (h); [4]): -5%
remaining activity at 10 µM (D1 (h); [5]): 114%
remaining activity at 10 µM (D1 (h); [6]): 96.3%
remaining activity at 10 µM (D1 (h); [7]): 105%
inhibition at 10 µM (mu (MOP) (h); [4]): 0%
remaining activity at 10 µM (mu (MOP) (h); [5]): 108%
remaining activity at 10 µM (mu (MOP) (h); [6]): 92.6%
remaining activity at 10 µM (mu (MOP) (h); [7]): 100%
inhibition at 10 µM (CB1 (h); [4]): 11%
remaining activity at 10 µM (CB1 (h); [5]): 96%
remaining activity at 10 µM (CB1 (h); [6]): 82.5%
remaining activity at 10 µM (CB1 (h); [7]): 89.3%
% Inhibition of Control Specific Binding (A2A (h)): 5%
% of Control Specific Binding 1st (A2A (h)): 104.2%
% of Control Specific Binding 2nd (A2A (h)): 85.6%
% of Control Specific Binding Mean (A2A (h)): 94.9%
inhibition at 10 µM (5-HT1A (h); [4]): -29%
remaining activity at 10 µM (5-HT1A (h); [5]): 130%
remaining activity at 10 µM (5-HT1A (h); [6]): 129%
remaining activity at 10 µM (5-HT1A (h); [7]): 129%
inhibition at 10 µM (A1 (h); [4]): -24%
remaining activity at 10 µM (A1 (h); [5]): 143%
remaining activity at 10 µM (A1 (h); [6]): 104%
remaining activity at 10 µM (A1 (h); [7]): 124%
% Inhibition of Control Specific Binding [3]: 0%
% of Control Specific Binding 1st [3]: 96.1%
% of Control Specific Binding 2nd [3]: 103.7%
% of Control Specific Binding Mean [3]: 99.9%
% Inhibition of Control Specific Binding (SKCa channel): 4%
% of Control Specific Binding 1st (SKCa channel): 97.3%
% of Control Specific Binding 2nd (SKCa channel): 95.2%
% of Control Specific Binding Mean (SKCa channel): 96.2%
inhibition at 10 µM (5-HT transporter (h); [4]): -13%
remaining activity at 10 µM (5-HT transporter (h); [5]): 103%
remaining activity at 10 µM (5-HT transporter (h); [6]): 123%
remaining activity at 10 µM (5-HT transporter (h); [7]): 113%
% Inhibition of Control Specific Binding (NK2 (h)): 66%
inhibition at 10 µM (NK2 (h); [4]): 66%
remaining activity at 10 µM (NK2 (h); [5]): 34.5%
remaining activity at 10 µM (NK2 (h); [6]): 33.7%
remaining activity at 10 µM (NK2 (h); [7]): 34.1%
inhibition at 10 µM (NOP (ORL1) (h); [4]): -7%
remaining activity at 10 µM (NOP (ORL1) (h); [5]): 104%
remaining activity at 10 µM (NOP (ORL1) (h); [6]): 109%
remaining activity at 10 µM (NOP (ORL1) (h); [7]): 107%
